Patent US20240315993A1, “ANTIPARASITIC COMPOUNDS” (Intervet Inc., priority 2021, published 2024)

Legend:
Rhipicephalus microplus = assay: Cattle - efficacy against one-host tick; format: in vivo
Protocol: Cattle were infested (whole body) with up to 3000 Rhipicephalus microplus larvae two or three times per week before and after the treatment day (Day 0). Cattle of treatment groups were treated subcutaneously or topically (spray or pour-on) at a dose of 1 mg/kg bodyweight of a test compound. As subcutaneous formulation either 2-pyrrolidon 50%/Tween 80 50% or NMP 60%/PEG300 40% was used. As topical formulation either a spray solution (DMF/Emulsifier 2%/tap water 98%) (Compound 4) or a DMA 92%/DEET 8% pour-on solution (all other compounds) or a pour-on solution containing Imwitor 988 (20%)+Miglyol 840 (QS) (Compound 453 and Compound 466) or a pour-on solution containing Miglyol 840 (QS) (Compound 453) was used. Cattle of the negative control group received only the formulation excipients of the respective administration route.
Fully engorged female ticks dropping from cattle were collected daily after treatment and counted in treatment and control groups. Efficacy was expressed using the standard ADEQ analysis method (ADEQ calculation in accordance with WAAVP guidelines for evaluating the efficacy of acaricides against ticks on ruminants; Veterinary parasitology 136 (2006) 29-43). Compounds with efficacy ≥80 percent were found active/effective. Onset of efficacy means the first Day with efficacy ≥80 percent. Duration of efficacy means the last Day with efficacy ≥80 percent.

[1] = test system: juvenile soft ticks (Ornithodoros moubata); assay: Guinea pig - efficacy against argaside tick; format: in vivo
Procedure, shortened: (§1)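 Guinea pigs given 5 mg/kg test compound orally (gavage) or s.c. in 10% DMF/emulsifier plus 90% water for injection, with local co-infestations of Ornithodoros moubata juveniles and Cimex lectularius at several post-treatment times. Engorged parasites scored dead/damaged about 24 h after collection; % inhibition versus pretreatment baseline by modified Schneider-Orelli formula.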

[2] = test system: bed bugs (Cimex lectularius); assay: Guinea pig - efficacy against bed bug; format: in vivo; conditions: for effective to control bed bugs: 5 mg/kg
Procedure, shortened: as §1

[3] = test system: Adult fleas (Ctenocephalides felis); assay: Flea feeding assay; conditions: 48 h, read-out: flea inhibition (% of dead+damaged fleas)
Protocol: Adult fleas (Ctenocephalides felis) of defined age were fed on artificial membranes with blood spiked with declining concentrations of a test compound (dissolved in a DMSO-emulsifier-blood mixture). After approximately 48 hours of continuous feeding, flea inhibition (i.e., % of dead+damaged fleas per test concentration) was assessed. The vitality of used parasites was confirmed in negative control groups (i.e., an untreated control and a solvent control).

[4] = test system: Rhipicephalus microplus tick larvae; assay: Tick larvae contact assay; conditions: read-out: Tick inhibition (% of damage+dead ticks)
Protocol: Tick larvae (Rhipicephalus microplus) were immersed for approximately 3 minutes in declining concentrations of a test compound (dissolved in a DMSO-emulsifier-deionized water mixture). Tick inhibition (% of damage+dead ticks per test concentration) was assessed approximately 24 hours after contact exposure. The vitality of used parasites was confirmed in negative control groups (i.e. an untreated control and a solvent control).

[5] = test system: Rhipicephalus sanguineus or Haemaphysalis elliptica ticks; assay: Dog - efficacy against ticks; format: in vivo; conditions: for therapeutic efficacy against ticks (active = efficacy ≥80 percent): D2
Protocol: (§2) Beagle dogs were infested (whole body) with 80 Ctenocephalides felis fleas and 50 Rhipicephalus sanguineus or Haemaphysalis elliptica ticks (sex ratio 1:1) two days before the treatment day (Day 0), and repeatedly thereafter. Dogs of treatment groups were treated with 10 mg/kg bodyweight of a test compound orally (compound weighed in gelatin capsule), topically (spot-on, DMA 92%/DEET 8%) or subcutaneously (PEG 200 90%/water for injection 10%). Dogs of the negative control group received only an empty gelatin capsule orally and the spot-on formulation excipients topically.
(§3) Compounds with efficacy ≥80 percent were found active.

[6] = test system: Mobile stages of sea lice (pre-adults, adults of Lepeophtheirus salmonis); assay: Adult sea lice contact assay; conditions: read-out: EC50 (sea lice inhibition, dead+damaged)
Protocol: Mobile stages of sea lice (i.e., pre-adults, adults of Lepeophtheirus salmonis) were exposed to seawater spiked with declining concentrations of a test compound (dissolved in a PEG sea-water mixture). Sea lice inhibition (% of dead+damaged sea lice) was assessed after approximately 1 and 24 hours of continuous exposure in comparison to a negative (solvent) control group.

[7] = test system: Copepodids (juvenile sea lice stage of Lepeophtheirus salmonis); assay: Juvenile sea lice contact assay; conditions: Lepeophtheirus salmonis, 24 h, read-out: Sea lice inhibition (% of dead+damaged copepodids)
Protocol: Copepodids (juvenile sea lice stage of Lepeophtheirus salmonis) were exposed to seawater spiked with declining concentrations of a test compound (dissolved in a DMSO sea-water mixture). Sea lice inhibition (% of dead+damaged copepodids) was assessed after approximately 24 hours of continuous exposure. The vitality of used parasites was confirmed in a negative (solvent) control group.

[8] = test system: Tick nymphs (stage III, Ornithodoros moubata); assay: Tick feeding assay; conditions: read-out: Tick inhibition (% of damaged+dead ticks at molting-assessment)
Protocol: Tick nymphs (stage III, Ornithodoros moubata) were fed on artificial membranes with blood spiked with declining concentrations of a test compound (dissolved in a DMSO-emulsifier-blood mixture). Fed nymphs were incubated for around 2-3 weeks to enable tick molting into the next stage. Tick inhibition (i.e, % of damaged+dead ticks at molting-assessment per test concentration) was assessed. The vitality of used parasites was confirmed in negative control groups (i.e., an untreated control and a solvent control).

[9] = test system: Fly larvae I (Lucilia cuprina); assay: Fly larvae contact/feeding assay; conditions: 48 h, read-out: Inhibition of fly larvae development
Protocol: Fly larvae I (Lucilia cuprina) were grown in medium spiked with declining concentrations of a test compound (dissolved in a DMSO-emulsifier-deionized water mixture). Inhibition of fly larvae development (%) was assessed after approximately 48 hours of continuous exposure. The vitality of used parasites was confirmed in negative control groups (i.e., an untreated control and a solvent control).

[10] = test system: Ctenocephalides felis fleas; assay: Dog - efficacy against fleas; format: in vivo; conditions: for therapeutic efficacy against fleas (active = efficacy ≥80 percent): D2
Protocol: as §2, §3

[11] = 1 mg/kg topical (Compound 4: spray solution; others: DMA 92%/DEET 8% pour-on)
[12] = 5 mg/kg subcutaneous, after 7 days
[13] = 5 mg/kg subcutaneous, after 10 days
[14] = 5 mg/kg subcutaneous, after 14 days
[15] = 5 mg/kg subcutaneous, after 17 days

O=C(Nc1ccc(F)cc1)c1cc(NC(=O)[C@H]2[C@H](c3cc(Cl)cc(Cl)c3)C2(Cl)Cl)ccc1F (racemic) [Compound 4]
duration of efficacy (last Day with efficacy ≥80 percent) (Rhipicephalus microplus; 1 mg/kg subcutaneous): 38 days
onset of efficacy (first Day with efficacy ≥80 percent) (Rhipicephalus microplus; 1 mg/kg subcutaneous): 2 days
duration of efficacy (last Day with efficacy ≥80 percent) (Rhipicephalus microplus; [11]): 58 days
onset of efficacy (first Day with efficacy ≥80 percent) (Rhipicephalus microplus; [11]): 3 days
activity against tick nymphs (≥80% inhibition, killed+damaged) ([1]; 5 mg/kg oral, Day 0): immediate activity
activity against tick nymphs (≥80% inhibition, killed+damaged) ([1]; 5 mg/kg oral, after 7 days): activity
activity against tick nymphs (≥80% inhibition, killed+damaged) ([1]; 5 mg/kg oral, after 10 days): activity
activity against tick nymphs (≥80% inhibition, killed+damaged) ([1]; 5 mg/kg oral, after 14 days): activity
activity against tick nymphs (≥80% inhibition, killed+damaged) ([1]; 5 mg/kg subcutaneous, Day 0): immediate activity
activity against tick nymphs (≥80% inhibition, killed+damaged) [1, 12]: activity
activity against tick nymphs (≥80% inhibition, killed+damaged) [1, 13]: activity
activity against tick nymphs (≥80% inhibition, killed+damaged) [1, 14]: activity
activity against tick nymphs (≥80% inhibition, killed+damaged) [1, 15]: activity
effective to control ticks ([1]; 5 mg/kg, at least until Day 10, both administration routes (oral, subcutaneous)): 100%
effective to control ticks ([1]; 5 mg/kg, for at least one week, both administration routes): 100%
duration of efficacy, subcutaneous compared with oral administration ([1]; 5 mg/kg, ticks and bed bugs): longer duration of efficacy
activity against bed bugs (≥80% inhibition, killed+damaged) ([2]; 5 mg/kg oral, Day 0): immediate activity
activity against bed bugs (≥80% inhibition, killed+damaged) ([2]; 5 mg/kg oral, after 7 days): activity
activity against bed bugs (≥80% inhibition, killed+damaged) ([2]; 5 mg/kg oral, after 10 days): activity
activity against bed bugs (≥80% inhibition, killed+damaged) ([2]; 5 mg/kg oral, after 14 days): activity
activity against bed bugs (≥80% inhibition, killed+damaged) ([2]; 5 mg/kg subcutaneous, Day 0): immediate activity
activity against bed bugs (≥80% inhibition, killed+damaged) [2, 12]: activity
activity against bed bugs (≥80% inhibition, killed+damaged) [2, 13]: activity
activity against bed bugs (≥80% inhibition, killed+damaged) [2, 14]: activity
activity against bed bugs (≥80% inhibition, killed+damaged) [2, 15]: activity
effective to control bed bugs ([2]; at least until Day 10, both administration routes (oral, subcutaneous)): 100%
effective to control bed bugs ([2]; for at least one week, both administration routes): 100%
inhibition at 1 ppm [3]: 80%
inhibition at 25 µM [4]: ≥ 80%
inhibition at 100 ppm [4]: 80%
efficacy against ticks in dogs (conclusion) ([5]; 10 mg/kg): therapeutic efficacy
therapeutic efficacy against ticks (active = efficacy ≥80 percent) ([5]; 10 mg/kg oral): active
therapeutic efficacy against ticks (active = efficacy ≥80 percent) ([5]; 10 mg/kg subcutaneous): active
EC50 [6]: 10 to 25 nM
inhibition at 0.1 µM [7]: ≥ 80%
inhibition at 1 ppm [8]: 80%
inhibition at 100 ppm [9]: 80%
efficacy against fleas in dogs (conclusion) ([10]; 10 mg/kg): therapeutic efficacy
therapeutic efficacy against fleas (active = efficacy ≥80 percent) ([10]; 10 mg/kg oral): active
therapeutic efficacy against fleas (active = efficacy ≥80 percent) ([10]; 10 mg/kg subcutaneous): active
active against fleas up to (efficacy ≥80 percent) ([10]; 10 mg/kg subcutaneous, repeated infestations): 86 D
